In patent US12521375B2, “Pharmaceutical composition for treating fatty liver disease” (Shionogi & Co., Ltd., priority 2020, dated 2026):

Tests used:
[1] = test system: mice fed an ultra-high fat, choline-deficient, methionine-lowered diet; assay: Effect on liver fibrosis progression in mice fed ultra-high fat, choline-deficient, methionine-lowered diet; type: in vivo, C57BL/6JJcl mice; parameters: 3-hydroxybutyric acid in plasma: unit not given here; details: for Amount of triglyceride in liver / Sirius red-positive area rate / 3-hydroxybutyric acid in plasma / Plasma triglyceride concentration: bid; for Amount of triglyceride in liver / Sirius red-positive area rate: oral, 8 weeks
Protocol: Six-week-old male C57BL/6JJcl mice were fed an ultra-high fat, choline-deficient, methionine-lowered diet (60 kcal % fat content, using lard, choline-deficient, methionine-lowered (0.1%)), and at the same time, the compound of the present invention was suspended in a vehicle (0.5% methylcellulose aqueous solution) so as to have a dose of 3 to 45 mg/kg/10 mL, and orally repeatedly administered (b.i.d.) for 8 weeks. Blood was collected from the tail vein during the repeated administration period, and biochemical parameters in plasma were measured. After 8 weeks of administration, blood was collected from the abdominal vena cava under anesthesia, and then the liver was collected. Paraffin-embedded sections prepared from the collected liver were subjected to Sirius red staining. A degree of fibrosis progression in the liver was determined from a Sirius red-positive area rate and evaluated.

[2] = Metabolic stability test (human); type: in vitro ADME; details: human liver microsomes, 37° C., 30 minutes, NADPH
Protocol: (§1) Commercially available pooled human liver microsomes were reacted with the compound of the present invention for a given time. A residual rate was calculated by comparison between the reacted sample and the unreacted sample to evaluate a degree at which the compound of the present invention is metabolized in the liver.
(§2) The compound was reacted at 37° C. for 0 minutes or 30 minutes in the presence of 1 mmol/L NADPH in 0.2 mL of a buffer (50 mmol/L Tris-HCl pH 7.4, 150 mmol/L potassium chloride, and 10 mmol/L magnesium chloride) containing 0.5 mg protein/mL of the human liver microsomes (oxidative reaction). After the reaction, 50 μL of the reaction solution was added to 100 μL of a solution of methanol/acetonitrile=1/1 (v/v) and mixed, and the mixture was centrifuged at 3000 rpm for 15 minutes. The compound of the present invention in the centrifuged supernatant was quantified by LC/MS/MS or solid-phase extraction (SPE)/MS. The amount of the compound of the present invention remained after the reaction was calculated with the amount of the compound at 0 minutes of the reaction defined as 100%.

[3] = test system: Malonyl-CoA concentration in organ; assay: Test for evaluating malonyl-CoA concentration in liver and muscles; type: in vivo, BKS.Cg-+Lepr^db/+Lepr^db/Jcl mice; details: for Malonyl-CoA concentration in organ with vehicle administration group defined as 100%, Liver / Malonyl-CoA concentration in organ with vehicle administration group defined as 100%, Muscle: 2 hours after administration
Protocol: Eight-week-old male BKS.Cg-+Lepr^db/+Lepr^db/Jcl mice were fasted for 4 hours, then the compound of the present invention was orally administered at a dose of 0.3 to 6 mg/5 mL/kg, and 2 hours after administration, the mice were killed by exsanguination through whole blood collection from the abdominal vena cava under anesthesia. Then, the liver and muscles were removed, and a 9% homogenate was prepared in a homogenizing buffer (distilled water: 60% perchloric acid: 85% phosphoric acid=43:5:2). The malonyl-CoA concentration in the tissue was quantified by LC/MS/MS.

[4] = test system: Crl:CD (SD) rats; assay: Influence on platelet count; type: in vivo; details: for Platelet count: oral, 4 days, SD rats
Protocol: The compound of the present invention was suspended in a 0.5% methylcellulose solution so as to have a dose of 50 to 600 mg/kg/day, and was orally repeatedly administered for 4 days to 6-week-old male Crl:CD (SD) rats under non-fasted conditions. On day 5 from the start of administration, blood was collected from the abdominal vena cava under anesthesia, and […]. A platelet count in plasma was evaluated with an automatic hemocytometer.

[5] = test system: high-fat diet-loaded mice with spontaneous fatty liver; assay: Effect on liver fibrosis progression in high-fat diet-loaded mice with spontaneous fatty liver; type: in vivo, FLS.B6-Lep<ob>/Shi mice; parameters: 3-hydroxybutyric acid in plasma: unit not given here; details: for Amount of triglyceride in liver / Sirius red-positive area rate / 3-hydroxybutyric acid in plasma / Plasma triglyceride concentration: bid; for Amount of triglyceride in liver / Sirius red-positive area rate: oral, 4 weeks
Protocol: Eight-week-old male FLS.B6-Lep/Shi mice were fed a high-fat diet (60 kcal % fat content, using shortening, containing 2% cholesterol and 8.7% fructose), and at the same time, the compound of the present invention was suspended in a 0.5% MC aqueous solution so as to have a dose of 5.5 to 60 mg/kg/5 mL, and orally repeatedly administered (b.i.d.) for 4 weeks. Blood was collected from the tail vein during the repeated administration period, and biochemical parameters in plasma were measured. After 4 weeks of administration, blood was collected from the abdominal vena cava under anesthesia, and then the liver was collected. Paraffin-embedded sections prepared from the collected liver were subjected to Sirius red staining. A degree of fibrosis progression in the liver was determined from a Sirius red-positive area rate and evaluated.

[6] = Metabolic stability test (rat); type: in vitro ADME
Protocol: [Worded in the source for another species; this species is reported under the same test.] as §1, §2

- Plasma triglyceride concentration ([1]; 3 mg/kg, Week 2): 32.9 ± 1.3 mg/dL
- Plasma triglyceride concentration ([1]; 3 mg/kg, Week 4): 22.4 ± 2.1 mg/dL
- Plasma triglyceride concentration ([1]; 3 mg/kg, Week 7): 27.2 ± 1.5 mg/dL
- Plasma triglyceride concentration ([1]; 10 mg/kg, Week 2): 30.4 ± 2.2 mg/dL
- Plasma triglyceride concentration ([1]; 10 mg/kg, Week 4): 21.5 ± 1.8 mg/dL
- Plasma triglyceride concentration ([1]; 10 mg/kg, Week 7): 22.1 ± 1.9 mg/dL
- Plasma triglyceride concentration ([1]; 30 mg/kg, Week 2): 23.1 ± 2.5 mg/dL
- Plasma triglyceride concentration ([1]; 30 mg/kg, Week 4): 11.1 ± 1.1 mg/dL
- Plasma triglyceride concentration ([1]; 30 mg/kg, Week 7): 16.2 ± 1.6 mg/dL
- Amount of compound remained, Human [2]: 83.3%
- Platelet count ([4]; 100 mg/kg/day): 987 ± 86
- Platelet count ([4]; 300 mg/kg/day): 988 ± 43
- Platelet count ([4]; 600 mg/kg/day): 1061 ± 85
- platelet count in SD rats (in words) ([4]; within a dose range used for evaluation (50 to 600 mg/kg/day)): did not affect the platelet count
- Plasma triglyceride concentration ([5]; 5.5 mg/kg, Week 0): 790 ± 95 mg/dL
- Plasma triglyceride concentration ([5]; 5.5 mg/kg, Week 1): 369 ± 32 mg/dL
- Plasma triglyceride concentration ([5]; 5.5 mg/kg, Week 2): 464 ± 30 mg/dL
- Plasma triglyceride concentration ([5]; 5.5 mg/kg, Week 4): 513 ± 23 mg/dL
- Plasma triglyceride concentration ([5]; 11 mg/kg, Week 0): 619 ± 76 mg/dL
- Plasma triglyceride concentration ([5]; 11 mg/kg, Week 1): 382 ± 44 mg/dL
- Plasma triglyceride concentration ([5]; 11 mg/kg, Week 2): 497 ± 39 mg/dL
- Plasma triglyceride concentration ([5]; 11 mg/kg, Week 4): 500 ± 27 mg/dL
- Amount of compound remained, Rat [6]: 85.5%
Compound: C[C@@H](CO[C@H]1CC[C@H](Oc2nc3c(F)cc(OC4CC4)cc3n2C)CC1)NC(N)=O [Compound I-12]
- Amount of triglyceride in liver ([1]; 3 mg/kg): 157 ± 7.3 mg/g tissue
- Sirius red-positive area rate ([1]; 3 mg/kg): 3.47 ± 0.41%
- 3-hydroxybutyric acid in plasma ([1]; 3 mg/kg, Week 2): 128 ± 23
- 3-hydroxybutyric acid in plasma ([1]; 3 mg/kg, Week 4): 155 ± 31
- 3-hydroxybutyric acid in plasma ([1]; 3 mg/kg, Week 7): 108 ± 31
- Amount of triglyceride in liver ([1]; 10 mg/kg): 137 ± 7.2 mg/g tissue
- Sirius red-positive area rate ([1]; 10 mg/kg): 4.46 ± 0.69%
- 3-hydroxybutyric acid in plasma ([1]; 10 mg/kg, Week 2): 136 ± 23
- 3-hydroxybutyric acid in plasma ([1]; 10 mg/kg, Week 4): 292 ± 27
- 3-hydroxybutyric acid in plasma ([1]; 10 mg/kg, Week 7): 119 ± 34
- Amount of triglyceride in liver ([1]; 30 mg/kg): 144 ± 7.5 mg/g tissue
- Sirius red-positive area rate ([1]; 30 mg/kg): 2.29 ± 0.32 %
- 3-hydroxybutyric acid in plasma ([1]; 30 mg/kg, Week 2): 189 ± 33
- 3-hydroxybutyric acid in plasma ([1]; 30 mg/kg, Week 4): 292 ± 82
- 3-hydroxybutyric acid in plasma ([1]; 30 mg/kg, Week 7): 187 ± 28
- Sirius red-positive area rate vs vehicle administration group (in words) ([1]; dose of 30 mg/kg): significantly lower than that of the vehicle administration group
- amount of triglyceride in the liver vs vehicle administration group (in words) ([1]; dose of 10 or 30 mg/kg): significantly lower than that of the vehicle administration group
- concentration of 3-hydroxybutyric acid in plasma vs vehicle administration group (in words) ([1]; mouse, in vivo): higher than that in the vehicle administration group
- plasma triglyceride concentration vs vehicle administration group (in words) ([1]; mouse, in vivo): lower than that in the vehicle administration group
- Malonyl-CoA concentration in organ with vehicle administration group defined as 100%, Liver ([3]; 0.67 mg/kg oral): 92.8%
- Malonyl-CoA concentration in organ with vehicle administration group defined as 100%, Muscle ([3]; 0.67 mg/kg oral): 70.8%
- Malonyl-CoA concentration in organ with vehicle administration group defined as 100%, Liver ([3]; 2 mg/kg oral): 91.1%
- Malonyl-CoA concentration in organ with vehicle administration group defined as 100%, Muscle ([3]; 2 mg/kg oral): 59.5%
- Malonyl-CoA concentration in organ with vehicle administration group defined as 100%, Liver ([3]; 6 mg/kg oral): 84.0%
- Malonyl-CoA concentration in organ with vehicle administration group defined as 100%, Muscle ([3]; 6 mg/kg oral): 56.4%
- malonyl-CoA concentrations in the liver and muscles (in words) ([3]; 0.3 to 6 mg/kg oral): reduced malonyl-CoA concentrations in the liver and muscles in a compound dose-dependent manner
- Amount of triglyceride in liver ([5]; 5.5 mg/kg): 451 ± 17 mg/g tissue
- Sirius red-positive area rate ([5]; 5.5 mg/kg): 1.26 ± 0.13 %
- 3-hydroxybutyric acid in plasma ([5]; 5.5 mg/kg, Week 0): 184 ± 20
- 3-hydroxybutyric acid in plasma ([5]; 5.5 mg/kg, Week 1): 470 ± 93
- 3-hydroxybutyric acid in plasma ([5]; 5.5 mg/kg, Week 2): 1108 ± 120
- 3-hydroxybutyric acid in plasma ([5]; 5.5 mg/kg, Week 4): 1354 ± 170
- Amount of triglyceride in liver ([5]; 11 mg/kg): 441 ± 11 mg/g tissue
- Sirius red-positive area rate ([5]; 11 mg/kg): 1.52 ± 0.18%
- 3-hydroxybutyric acid in plasma ([5]; 11 mg/kg, Week 0): 178 ± 8.7
- 3-hydroxybutyric acid in plasma ([5]; 11 mg/kg, Week 1): 449 ± 140
- 3-hydroxybutyric acid in plasma ([5]; 11 mg/kg, Week 2): 1314 ± 370
- 3-hydroxybutyric acid in plasma ([5]; 11 mg/kg, Week 4): 1508 ± 380
- Sirius red-positive area rate vs vehicle administration group (in words) ([5]; dose of 5.5 mg/kg): significantly lower than that of the vehicle administration group
- amount of triglyceride in the liver vs vehicle administration group (in words) ([5]; mouse, in vivo): not significantly different from that in the vehicle administration group
- concentration of 3-hydroxybutyric acid in plasma vs vehicle administration group (in words) ([5]; mouse, in vivo): tended to be higher than that in the vehicle administration group
- plasma triglyceride concentration vs vehicle administration group (in words) ([5]; mouse, in vivo): not significantly different from that in the vehicle administration group
